Data taken from EP0908457B1, “3-(1,2-benzisothiazol- and isoxazol-5-Y1)-2,4(1H,3H)-pyrimidinedione or thione and 3-(1,2-benzisothiazol- and isoxazol-5-y1)-4(3H)-pyrimidinone or thione herbicidal agents” (BASF AKTIENGESELLSCHAFT, priority 1997, dated 1999).

Assays:
Format in all cases: in vivo
[1] = test system: Sagittaria pygmaea, L.; assay: Preemergence weed control under flooded paddy conditions, SAGPY (Arrowhead (Pygmaea)); details: flooded paddy; for herbicidal effect rating, SAGPY: preemergence, rated three to four weeks after treatment; for SAGPY: preemergence weeds, herbicidal effect rating 0-9, three to four weeks after treatment
[2] = test system: Monochoria vaginalis, Presl.; assay: Preemergence weed control under flooded paddy conditions, MOOVA (Monochoria); details: flooded paddy; for herbicidal effect rating, MOOVA: preemergence, rated three to four weeks after treatment; for MOOVA: preemergence weeds, herbicidal effect rating 0-9, three to four weeks after treatment
[3] = test system: Echinochloa oryzoides (Ard.) Fritsch.; assay: Preemergence weed control under flooded paddy conditions, ECHORC (Watergrass (Calif.)); details: flooded paddy; for herbicidal effect rating, ECHORC: preemergence, rated three to four weeks after treatment; for ECHORC: preemergence weeds, herbicidal effect rating 0-9, three to four weeks after treatment
[4] = test system: Cyperus iria; assay: Preemergence weed control under flooded paddy conditions, CYPIR (Rice Flatsedge); details: flooded paddy; for herbicidal effect rating, CYPIR: preemergence, rated three to four weeks after treatment; for CYPIR: preemergence weeds, herbicidal effect rating 0-9, three to four weeks after treatment
[5] = test system: Cyperus serotinus, Rottb.; assay: Preemergence weed control under flooded paddy conditions, CYPSE (Flatsedge); details: for herbicidal effect rating, CYPSE: preemergence, rated three to four weeks after treatment; for CYPSE: preemergence weeds, herbicidal effect rating 0-9, three to four weeks after treatment

| Structure (SMILES) | herbicidal effect rating, SAGPY ([1]; Rate 0.0320 kg/ha) | herbicidal effect rating, SAGPY ([1]; Rate 0.0620 kg/ha) | herbicidal effect rating, SAGPY ([1]; Rate 0.1250 kg/ha) | herbicidal effect rating, SAGPY ([1]; Rate 0.2500 kg/ha) | herbicidal effect rating, MOOVA ([2]; Rate 0.0320 kg/ha) | herbicidal effect rating, MOOVA ([2]; Rate 0.0620 kg/ha) | herbicidal effect rating, MOOVA ([2]; Rate 0.1250 kg/ha) | herbicidal effect rating, MOOVA ([2]; Rate 0.2500 kg/ha) | herbicidal effect rating, ECHORC ([3]; Rate 0.0320 kg/ha) | herbicidal effect rating, ECHORC ([3]; Rate 0.0620 kg/ha) | herbicidal effect rating, ECHORC ([3]; Rate 0.1250 kg/ha) | herbicidal effect rating, ECHORC ([3]; Rate 0.2500 kg/ha) | herbicidal effect rating, CYPIR ([4]; Rate 0.0320 kg/ha) | herbicidal effect rating, CYPIR ([4]; Rate 0.0620 kg/ha) | herbicidal effect rating, CYPIR ([4]; Rate 0.1250 kg/ha) | herbicidal effect rating, CYPIR ([4]; Rate 0.2500 kg/ha) | herbicidal effect rating, CYPSE ([5]; Rate 0.0320 kg/ha) | herbicidal effect rating, CYPSE ([5]; Rate 0.1250 kg/ha) | herbicidal effect rating, CYPSE ([5]; Rate 0.2500 kg/ha) | other results |
| --- | --- | --- | --- | --- | --- | --- | --- | --- | --- | --- | --- | --- | --- | --- | --- | --- | --- | --- | --- | --- |
| Cn1c(C(F)(F)F)cc(=O)n(-c2ccc3snc(COC(=O)Nc4ccccc4)c3c2)c1=O [Example 375, 2,4(1H,3H)-Pyrimidinedione, 3-[3-(hydroxymethyl)-1,2-benzisothiazol-5-yl]-1-methyl-6-(trifluoromethyl)-, phenylcarbamate (ester)] | 7.0 | 9.0 | 9.0 | 9.0 | 9.0 | 9.0 | 9.0 | 9.0 | 6.0 | 6.0 | 9.0 | 9.0 | 3.0 | 4.0 | 6.0 | 9.0 | 0.0 | 4.0 | 7.0 | herbicidal effect rating, CYPSE ([5]; Rate 0.0620 kg/ha): 0.0 |
| Cn1c(C(F)(F)F)cc(=O)n(-c2ccc3snc(COC(=O)NCc4ccccc4)c3c2)c1=O [Example 390, 2,4(1H,3H)-Pyrimidinedione, 3-[3-(hydroxymethyl)-1,2-benzisothiazol-5-yl]-1-methyl-6-(trifluoromethyl)-, benzylcarbamate (ester)] | 2.5 | 5.5 | 8.0 | 8.0 | 9.0 | 9.0 | 9.0 | 9.0 | 5.5 | 7.0 | 8.0 | 9.0 | 1.0 | 4.0 | 7.0 | 9.0 | 2.5 | 4.0 | 9.0 | herbicidal effect rating, SAGPY ([1]; Rate 0.5000 kg/ha): 9.0; herbicidal effect rating, MOOVA ([2]; Rate 0.5000 kg/ha): 9.0; herbicidal effect rating, ECHORC ([3]; Rate 0.5000 kg/ha): 9.0; herbicidal effect rating, CYPIR ([4]; Rate 0.5000 kg/ha): 9.0; herbicidal effect rating, CYPSE ([5]; Rate 0.5000 kg/ha): 6.0 |
| COc1cccc(CC(=O)OCc2nsc3ccc(-n4c(=O)cc(C(F)(F)F)n(C)c4=O)cc23)c1 [Example 454, 2,4(1H,3H)-Pyrimidinedione, 3-[3-(hydroxymethyl)-1,2-benzisothiazol-5-yl]-1-methyl-6-(trifluoromethyl)-, (m-methoxyphenyl)acetate (ester)] | – | – | – | – | – | – | – | – | – | – | – | – | – | – | – | – | – | – | – | SAGPY ([1]; 0.0320 kg/ha): 0.0; SAGPY ([1]; 0.0620 kg/ha): 2.0; SAGPY ([1]; 0.1250 kg/ha): 3.0; SAGPY ([1]; 0.2500 kg/ha): 6.0; MOOVA ([2]; 0.0320 kg/ha): 2.0; MOOVA ([2]; 0.0620 kg/ha): 7.0; MOOVA ([2]; 0.1250 kg/ha): 9.0; MOOVA ([2]; 0.2500 kg/ha): 9.0; ECHORC ([3]; 0.0320 kg/ha): 3.0; ECHORC ([3]; 0.0620 kg/ha): 3.0; ECHORC ([3]; 0.1250 kg/ha): 6.0; ECHORC ([3]; 0.2500 kg/ha): 7.0; CYPIR ([4]; 0.0320 kg/ha): 0.0; CYPIR ([4]; 0.0620 kg/ha): 1.0; CYPIR ([4]; 0.1250 kg/ha): 6.0; CYPIR ([4]; 0.2500 kg/ha): 9.0; CYPSE ([5]; 0.0320 kg/ha): 0.0; CYPSE ([5]; 0.0620 kg/ha): 0.0; CYPSE ([5]; 0.1250 kg/ha): 4.0; CYPSE ([5]; 0.2500 kg/ha): 8.0 |
